What was measured:
[1] = Synergy studies with amphotericin B (AMB); format: cell-based; conditions: combination with amphotericin B
[2] = tested on: Saccharomyces cerevisiae deletion mutant strains; experiment: Chemical genomic profiling against deletion mutant yeast strains; format: cell-based; conditions: for sensitivity of mutant LEM3-Δ: chemical genomic profile of known antifungal agents
Procedure: This method has been used to explore the mechanism of action for bioactive compounds, including natural products. Forazoline A was screened against over four thousand deletion mutant yeast strains, genomic DNA was extracted, and mutant-specific DNA barcodes were amplified and sequenced by Illumina sequencing. Forazoline A sensitive and resistant mutants were determined by quantification of DNA-barcodes, which provided a chemical genomic profile used to evaluate the mechanism of action.

Candida albicans K1 = experiment: Neutropenic murine disseminated candidiasis model, kidney organism burden; format: in vivo; conditions: Candida albicans K1, single dose 2.5, 0.78 and 0.125 mg/kg, after 8 hours
Source text: (§1) Animals. Six-week-old ICR Swiss specific-pathogen-free female mice weighing 23 to 27 g were used for all studies. Animals were maintained in accordance with the American Association for Accreditation of Laboratory Care criteria. Animal studies were approved by the University of Wisconsin Animal Care Committee.
Infection model. A neutropenic, murine, disseminated candidiasis model was used for the treatment studies. Mice were rendered neutropenic (polymorphonuclear cell counts of <100 mm^3) by injecting cyclophosphamide subcutaneously 4 days before infection (150 mg/kg of body weight) and 1 day before infection (100 mg/kg). Candida albicans K1 was subcultured on Sabouraud dextrose agar (SDA) 24 h prior to infection. The inocula were prepared by placing three to five colonies into 5 ml of sterile 0.15 M NaCl warmed to 35° C. The final inoculum was adjusted to 0.6 transmittance at 530 nm. Fungal counts of the inocula determined by viable counts on SDA were 5.63±0.38 log10 CFU/mL (mean±standard deviation).
Disseminated infection with C. albicans organisms was produced by injection of 0.1 ml of the inoculum via the lateral tail vein 2 h prior to the start of antifungal therapy. At the end of the study period (8 h), animals were sacrificed by CO2 asphyxiation. […] The results are expressed as the mean and standard deviation of the log10 CFU/kidney from three mice. […]

[3] = Toxic effects observed in treated mice of the candidiasis model; format: in vivo; conditions: neutropenic mice, 2.5, 0.78 and 0.125 mg/kg, 8 hours
Procedure: as §1
Drug Treatment. […] The intravenous dose was given by the lateral tail vein via a 200 μL infusion. The intraperitoneal dose was administered in 500 μL volume. Control mice were treated with saline. Groups of mice were sacrificed at the start of therapy and 8 hours after therapy for determination of organism burden in the kidney as described above.

Water solubility = format: physicochemical

## CO[C@H]1[S+]([O-])C2=CC(=O)[C@](C)(O[C@H]3CC[C@H](N(C)C)[C@@H](C)O3)[C@@H](O)CCC(C)=C[C@@H]3[C@@H](C)[C@](C)(Cl)[C@@H](C[C@H]3O[C@H]3CC[C@H](N(C)C)[C@@H](C)O3)OC(=O)[C@@H]3CSC(=N3)[C@]1(C)N2 (some centres unmarked) [Forazoline A]
[1]
  interaction when tested with AMB: synergy
[2]; GO: 0045332, P=0.0009, driven by LEM3 and FPK1 deletion mutants
  gene enrichment of top sensitive mutant strains (P<0.0001): significantly enriched for genes involved in phospholipid translocation
Candida albicans K1
  reduction in organism burden compared to control mice: 1.5+/−0.12 log10 cfu/kidney
[3]
  toxic effects from the compound: No toxic effects
Water solubility
  water solubility: about 5 mg/mL

## C[C@@H]1[C@H](O)[C@@H](C)/C=C/C=C/C=C/C=C/C=C/C=C/C=C/[C@H](O[C@@H]2O[C@H](C)[C@@H](O)[C@H](N)[C@@H]2O)C[C@@H]2O[C@](O)(C[C@@H](O)C[C@@H](O)[C@H](O)CC[C@@H](O)C[C@@H](O)CC(=O)O[C@H]1C)C[C@H](O)[C@H]2C(=O)O [amphotericin, amphotericin B]
[2]
  sensitivity of mutant LEM3-Δ: not among the most sensitive strains

## CC[C@H](C)C[C@H](C)CCCCCCCCC(=O)N[C@H]1C[C@@H](O)[C@@H](NCCN)NC(=O)[C@@H]2[C@@H](O)CCN2C(=O)[C@H]([C@H](O)CCN)NC(=O)[C@H]([C@H](O)[C@@H](O)c2ccc(O)cc2)NC(=O)[C@@H]2C[C@@H](O)CN2C(=O)[C@H]([C@@H](C)O)NC1=O [caspofungin]
[2]
  sensitivity of mutant LEM3-Δ: not among the most sensitive strains

## OC(Cn1cncn1)(Cn1cncn1)c1ccc(F)cc1F [fluconazole]
[2]
  sensitivity of mutant LEM3-Δ: not among the most sensitive strains

Reference: US11135203B2, “Forazolines, compositions thereof and uses thereof” (Wisconsin Alumni Research Foundation, priority 2013, dated 2021)
